The text below walks through data of patent publication US20240239767A1 (AstraZeneca AB, priority 2022, published 2024).

For test [1], the target named is T1, PCSK9 (Homo sapiens, UniProt Q8NBP7, G670E/V474I). Kind of test: biochemical.
Target sequence in this assay (Q8NBP7 with tags, fused parts or gaps V474I/G670E): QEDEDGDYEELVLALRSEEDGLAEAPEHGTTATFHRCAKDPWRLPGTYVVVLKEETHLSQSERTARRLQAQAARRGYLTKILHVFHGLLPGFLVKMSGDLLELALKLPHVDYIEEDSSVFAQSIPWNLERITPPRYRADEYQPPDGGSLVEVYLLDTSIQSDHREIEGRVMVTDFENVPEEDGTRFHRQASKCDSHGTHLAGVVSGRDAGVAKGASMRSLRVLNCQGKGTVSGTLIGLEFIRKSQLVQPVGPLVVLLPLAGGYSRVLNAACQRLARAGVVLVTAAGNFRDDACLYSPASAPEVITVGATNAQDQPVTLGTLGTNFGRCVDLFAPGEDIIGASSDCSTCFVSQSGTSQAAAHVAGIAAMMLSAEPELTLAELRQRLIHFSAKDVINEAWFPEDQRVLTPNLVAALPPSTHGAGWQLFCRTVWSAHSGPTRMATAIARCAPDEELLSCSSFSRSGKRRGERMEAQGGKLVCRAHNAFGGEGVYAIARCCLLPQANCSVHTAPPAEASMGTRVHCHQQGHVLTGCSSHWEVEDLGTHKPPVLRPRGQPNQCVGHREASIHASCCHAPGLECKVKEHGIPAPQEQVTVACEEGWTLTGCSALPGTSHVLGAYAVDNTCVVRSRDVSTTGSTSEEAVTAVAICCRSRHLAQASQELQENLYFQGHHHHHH
The target in test [2] is PCSK9 (Homo sapiens, UniProt Q8NBP7). Put plainly: Assay 2 - Biophysical human PCSK9 assay (SPR, Biacore). In kind it is binding. Further details: biotinylated human PCSK9 (31-692)-Avi-His6. As to conditions: geometric mean; SPR single-cycle kinetics, 30° C.; read-out: Assay 2 (PCSK9 BIAcore DBA CR) GMean Kd. As to the method:
The SPR binding experiments were performed on a Biacore S200 optical biosensor unit at 30° C. A Series S Sensor Chip SA that is designed to bind biotinylated molecules for interaction analysis in Biacore systems was equilibrated at room temperature prior to use. The running buffer for protein tethering and subsequent ligand binding experiments was 10 mM HEPES pH 7.4, 150 mM NaCl, 0.05% (v/v) Tween 20 pH 7.4.
For the surface tethering of PCSK9, biotinylated human PCSK9 (31-692)-Avi-His6 at a concentration of 0.5 mg/mL was used. Prior to the surface tethering, the surface was exposed to a solution of 50 mM NaOH, 500 mM NaCl via 3 consecutive injections of this solution with a contact time of 60 s and a flowrate of 10 μL min- to remove non-conjugated streptavidin. The PCSK9 protein was diluted to a concentration of 20 μg/mL using running buffer and injected with a contact time of 180-300 s and a flowrate of 10 μL min^−1 over a single flow channel (typically flow channel 2 or flow channel 4) with the aim to achieve protein capture levels of >5000 response units (RU). Remaining biotin binding sites were blocked via 2 consecutive injections of a 10 μM D-biotin solution in running buffer with a contact time of 60 s and a flowrate of 10 μL min^−1 over all flow-channels.
The binding experiments were all performed at a flow rate of 30 μL min^−1 and by employing the method of single-cycle kinetics. This approach involves the sequential injection of a compound concentration series without regeneration steps. A contact time between 90-150 s was selected, which was followed by a 40 min dissociation phase to allow for a proper estimation of the dissociation rate constant. Test compounds were delivered in DMSO at a concentration of 10 mM and a digital dispenser HP D300 was used to set up the compound concentration series using 6 concentrations. The tested concentrations have been 30, 100, 300, 1000, 3000 and 10000 nM. Prior to injecting any compound, the surfaces were equilibrated by injecting running buffer over them in three separate pulses. The data collection rate was set to 10 Hz.
The raw sensorgrams of the compound injections were first subjected to reference subtraction (subtracting the signal from flow channel 1 and/or 3 from the signal from channels 2 and/or 4 respectively) and then blank subtraction (subtracting the signal from injecting DMSO controls from the reference subtracted data). The resulting double-referenced sensorgrams were then fitted using a 1:1 binding interaction model using the manufactures software package to extract kinetic- and affinity data.

The target of test [3] is T2, potassium ion channel hERG (human Ether-á-go-go-Related Gene) (Homo sapiens, UniProt Q12809).
T2 construct: expressed in transfected cells; host or cells: Chinese hamster ovary K1 (CHO)
Put plainly: Assay 5 - hERG assay (SyncroPatch 384PE patch clamp, CHO cells). Type of test: cell-based. As to conditions: geometric mean, CHO cells over-expressing hERG, read-out: Assay 5 (hERG Hu CHO IF EPh CR-Syncro) GMean IC50. In a few lines:
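Automated whole-cell patch clamp at room temperature on CHO-K1 cells over-expressing hERG, using K-fluoride/escin internal solution (pH 7.2) and NMDG-containing external solution (pH 7.4). Compounds were tested in a 6-point cumulative format, 0.33% final DMSO. Wells accepted only with seal >30 MegaOhm, Z′>0.4 and current >0.2 nA.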
A general note: hERG is a cardiac potassium channel; its block is linked to QT prolongation.

Test [4] addresses T1, PCSK9. Kind of test: cell-based.
Target sequence in this assay (Q8NBP7 31-152): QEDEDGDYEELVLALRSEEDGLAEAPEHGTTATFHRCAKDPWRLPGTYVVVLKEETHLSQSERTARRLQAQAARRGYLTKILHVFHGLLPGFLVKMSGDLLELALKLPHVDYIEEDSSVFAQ
Target sequence in this assay (Q8NBP7 153-692 V474I/G670E): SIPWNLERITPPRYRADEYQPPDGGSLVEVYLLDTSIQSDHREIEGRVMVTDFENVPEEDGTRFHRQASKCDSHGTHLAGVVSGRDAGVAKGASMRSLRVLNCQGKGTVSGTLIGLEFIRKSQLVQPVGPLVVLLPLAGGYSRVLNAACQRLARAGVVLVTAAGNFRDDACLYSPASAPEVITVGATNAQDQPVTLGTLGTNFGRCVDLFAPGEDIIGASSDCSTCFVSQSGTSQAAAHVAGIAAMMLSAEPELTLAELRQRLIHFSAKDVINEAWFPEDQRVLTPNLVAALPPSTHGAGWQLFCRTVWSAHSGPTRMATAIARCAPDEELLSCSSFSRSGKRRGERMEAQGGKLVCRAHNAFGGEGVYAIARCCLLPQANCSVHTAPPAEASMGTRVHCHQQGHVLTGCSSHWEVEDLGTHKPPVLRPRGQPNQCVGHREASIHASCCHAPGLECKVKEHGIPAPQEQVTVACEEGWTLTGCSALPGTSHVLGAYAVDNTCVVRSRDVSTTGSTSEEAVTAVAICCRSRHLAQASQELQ
Description: This assay measures for PCSK9 antagonist activity based on a test compound's capacity to restore LDL-C uptake in HepG2 cells. The assay is based on exogenous PCSK9 and LDL-C complexed with a pH-sensitive dye. Outside the cells, at neutral pH, the pHrodo Red-LDL is dimly fluorescent but upon LDLR mediated endocytosis it fluoresces brightly. PCSK9 traffics the LDLR to intracellular degradation and reduces uptake of LDL-C. Inhibition of PCSK9 reduces LDLR degradation and the increased LDL-C uptake is quantified by fluorescence microscopy.
Cell medium: MEM supplemented with 10% FBS, 1× NEAA and Sodium Pyruvate
Assay medium: OptiMem supplemented with penicillin/streptomycin
Cells: HepG2 (ATCC #HB-8065)
Cryopreserved HepG2 cells were thawed in assay medium and centrifuged for 5 min at 250 g. Supernatant was discarded and the cell pellet resuspended in cell medium and counted with a Nucleocounter. Cells were again centrifuged 5 min at 250 g and the pellet was resuspended to 500000 cells/mL in assay medium. • 2. 20 μL of above cell mix was dispensed into black pclear TC treated 384 well plates with Multidrop Combi and left at room temperature for 20 minutes. • 3. Plates were incubated at 37° C., 5% CO2 for 24 h
Test compounds were prepared in concentration response in DMSO with a half-log dilution factor in DMSO in Echo 384 LDV plates starting at 10 mM. • 2. 30 nL of above test compounds were dispensed with Echo 655 to cells for a top concentration of 10 μM • 3. […] Plates were incubated at 37° C., 5% CO2 for 24 h
10 μL pHrodo Red-LDL in assay medium was dispensed to cells with Multidrop Combi for 6 μg/mL • 2. Plates were incubated at 37° C., 5% CO2 and imaged with the Incucyte S3 after 4 h and 24 h
Image data was processed using Incucyte 2021, a software to identify cells and red fluorescent intensity. Screener was used to further process data. Data was normalized as % effect of the signal between median values of the on-plate controls of DMSO and 100 nM Evolocumab according to the formula % effect=−100*(x−DMSO)/(Evolocumab−DMSO) where x equals the measured signal. Concentration response data of the normalized values were fitted using a four-parameter logistic fit.
Test [5] deals with GSK3b (Glycogen synthase kinase-3 beta) (Homo sapiens, UniProt P49841). Kind of test: Assay 6 - GSK3b assay (ThermoFisher, FRET Z-Lyte). Type of test: biochemical. As to conditions: geometric mean; ATP Conc: 10.000 μM; read-out: Assay 6 (GSK3B FRET-Z-Lyte CR) GMean IC50 (μM) ATP Conc: 10.000. In a few lines:
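Z-Lyte FRET kinase assay: 0.22-0.92 ng GSK3β with 2 μM Ser/Thr 09 peptide in 50 mM HEPES pH 7.5, 10 mM MgCl2, 1 mM EGTA, 0.01% BRIJ-35, 60 min at room temperature, then 60 min development. Compounds in 1% DMSO, 10-point 3-fold dilutions from 10 μM; sigmoidal dose-response fit.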

T2 sequence (Q12809 whole entry): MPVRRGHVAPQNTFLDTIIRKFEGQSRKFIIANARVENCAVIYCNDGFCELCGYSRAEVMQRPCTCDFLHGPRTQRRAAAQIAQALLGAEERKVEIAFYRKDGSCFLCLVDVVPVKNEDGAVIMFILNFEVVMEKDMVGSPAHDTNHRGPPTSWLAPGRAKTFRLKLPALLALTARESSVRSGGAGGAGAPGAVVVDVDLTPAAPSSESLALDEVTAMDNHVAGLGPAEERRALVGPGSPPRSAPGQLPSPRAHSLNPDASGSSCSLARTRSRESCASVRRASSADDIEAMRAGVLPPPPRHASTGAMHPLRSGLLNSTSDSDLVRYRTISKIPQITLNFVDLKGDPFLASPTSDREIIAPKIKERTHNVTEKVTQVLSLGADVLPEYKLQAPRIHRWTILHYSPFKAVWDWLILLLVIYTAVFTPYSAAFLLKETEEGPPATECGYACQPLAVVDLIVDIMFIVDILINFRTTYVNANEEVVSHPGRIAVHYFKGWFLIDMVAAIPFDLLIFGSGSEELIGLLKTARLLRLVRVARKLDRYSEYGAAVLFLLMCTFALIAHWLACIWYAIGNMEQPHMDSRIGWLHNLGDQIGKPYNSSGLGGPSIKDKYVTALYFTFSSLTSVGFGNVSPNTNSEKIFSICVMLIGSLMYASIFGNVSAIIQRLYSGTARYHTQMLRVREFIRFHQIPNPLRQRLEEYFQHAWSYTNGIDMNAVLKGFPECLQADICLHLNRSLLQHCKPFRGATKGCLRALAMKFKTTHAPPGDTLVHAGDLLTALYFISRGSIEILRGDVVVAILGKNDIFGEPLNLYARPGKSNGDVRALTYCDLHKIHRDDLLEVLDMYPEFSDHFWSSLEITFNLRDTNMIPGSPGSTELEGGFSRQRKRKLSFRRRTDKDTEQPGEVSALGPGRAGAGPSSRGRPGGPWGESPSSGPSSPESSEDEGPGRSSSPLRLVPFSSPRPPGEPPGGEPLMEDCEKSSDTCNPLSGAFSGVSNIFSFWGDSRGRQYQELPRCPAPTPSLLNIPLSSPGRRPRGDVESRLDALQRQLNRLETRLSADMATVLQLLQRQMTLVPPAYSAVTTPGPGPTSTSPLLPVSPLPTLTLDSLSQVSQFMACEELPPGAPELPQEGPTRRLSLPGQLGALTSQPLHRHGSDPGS
PCSK9 (Homo sapiens, UniProt Q8NBP7), sequence (Q8NBP7 31-692): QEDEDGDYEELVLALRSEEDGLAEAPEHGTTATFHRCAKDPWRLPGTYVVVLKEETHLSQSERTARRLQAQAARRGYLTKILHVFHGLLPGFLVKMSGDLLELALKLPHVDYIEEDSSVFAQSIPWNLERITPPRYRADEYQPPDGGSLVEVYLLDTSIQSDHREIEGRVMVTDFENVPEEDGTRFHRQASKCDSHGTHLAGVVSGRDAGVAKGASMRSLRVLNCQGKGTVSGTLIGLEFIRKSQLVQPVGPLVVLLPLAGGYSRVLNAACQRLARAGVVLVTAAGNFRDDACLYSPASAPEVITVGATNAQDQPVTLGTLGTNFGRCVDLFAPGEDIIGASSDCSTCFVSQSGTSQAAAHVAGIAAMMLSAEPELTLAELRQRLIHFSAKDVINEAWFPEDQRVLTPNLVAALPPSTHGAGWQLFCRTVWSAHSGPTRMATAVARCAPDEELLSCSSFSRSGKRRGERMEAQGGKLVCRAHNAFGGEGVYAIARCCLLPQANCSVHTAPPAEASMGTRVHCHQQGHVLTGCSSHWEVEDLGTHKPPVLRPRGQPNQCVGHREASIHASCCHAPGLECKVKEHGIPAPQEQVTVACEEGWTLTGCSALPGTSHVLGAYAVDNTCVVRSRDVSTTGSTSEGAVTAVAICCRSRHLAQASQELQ
GSK3b (Glycogen synthase kinase-3 beta), sequence (P49841 whole entry): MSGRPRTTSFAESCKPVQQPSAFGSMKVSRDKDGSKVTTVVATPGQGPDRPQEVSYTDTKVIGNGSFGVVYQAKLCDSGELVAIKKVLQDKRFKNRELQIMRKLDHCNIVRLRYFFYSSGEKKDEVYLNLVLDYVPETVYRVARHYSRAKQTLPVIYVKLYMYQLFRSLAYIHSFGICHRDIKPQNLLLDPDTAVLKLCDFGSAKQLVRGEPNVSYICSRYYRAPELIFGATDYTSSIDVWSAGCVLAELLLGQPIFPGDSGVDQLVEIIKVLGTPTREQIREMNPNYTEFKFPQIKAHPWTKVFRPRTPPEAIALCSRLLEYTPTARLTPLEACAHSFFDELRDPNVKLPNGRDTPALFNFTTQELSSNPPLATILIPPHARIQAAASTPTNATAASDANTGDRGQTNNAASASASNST

Turning to `O=c1ccccn1-c1ccc(N[C@H]2CC[C@H](Nc3nc4cc(OC(F)F)cnc4[nH]3)C2)nc1` [Example 60, 6′-(((1S,3S)-3-((6-(Difluoromethoxy)-3H-imidazo[4,5-b]pyridin-2-yl)amino)cyclopentyl)amino)-2H-[1,3′-bipyridin]-2-one], the values for the half-inhibitory concentration (IC50) (at PCSK9 [1]; in test [3]; against PCSK9 [4]) were 0.0006 µM, 33 µM and 0.041 µM, respectively. Moreover, the Kd – broadly, the free concentration of one partner at which half of the binding sites on the other are occupied at equilibrium, for simple one-to-one binding – on PCSK9 [2] was 0.001 µM.
Regarding `O=c1c2sccc2ccn1-c1ccc(N[C@H]2CC[C@H](Nc3nc4cccnc4s3)C2)nc1` [Example 76, 6-(6-(((1S,3S)-3-(Thiazolo[5,4-b]pyridin-2-ylamino)cyclopentyl)amino)pyridin-3-yl)thieno[2,3-c]pyridin-7(6H)-one], the IC50 (in general, the concentration that inhibits the measured activity by half) on PCSK9 [1] is 0.0004 µM; in test [3], 2.57 µM; on PCSK9 [4], 0.055 µM; in test [5], over 10 µM. For the same compound, the Kd on PCSK9 [2] is 0.0001 µM.
In the same order, the values of `O=c1ccc2cccnc2n1-c1ccc(N[C@H]2CC[C@H](Nc3nc4cccnc4[nH]3)C2)nc1` [Example 34, 1-(6-(((1S,3S)-3-((3H-Imidazo[4,5-b]pyridin-2-yl)amino)cyclopentyl)amino)pyridin-3-yl)-1,8-naphthyridin-2(1H)-one] are 0.0012 µM, over 40 µM, 0.098 µM, over 10 µM and 0.001 µM.
In the same order, the values of `O=c1c(Cl)cccn1-c1ccc(N[C@H]2CC[C@H](Nc3nc4cccnc4s3)C2)nc1` [Example 24, 3-Chloro-6′-(((1S,3S)-3-(thiazolo[5,4-b]pyridin-2-ylamino)cyclopentyl)amino)-2H-[1,3′-bipyridin]-2-one] are 0.0007 µM, 13.9 µM, 0.076 µM, over 10 µM and 0.0001 µM.
In the same order, the values of `O=c1ccccn1-c1ccc(N[C@H]2CC[C@H](Nc3nc4cc(CO)cnc4[nH]3)C2)nc1` [Example 61, 6′-(((1S,3S)-3-((6-(Hydroxymethyl)-3H-imidazo[4,5-b]pyridin-2-yl)amino)cyclopentyl)amino)-2H-[1,3′-bipyridin]-2-one] are 0.0089 µM, over 40 µM, 0.1 µM, over 10 µM and 0.011 µM.
For the compound `CN1C(=O)CN(c2ccc(N[C@H]3CC[C@H](Nc4nc5cccnc5[nH]4)C3)nc2)C1=O` [Example 37, 1-(6-(((1S,3S)-3-((3H-Imidazo[4,5-b]pyridin-2-yl)amino)cyclopentyl)amino)pyridin-3-yl)-3-methylimidazolidine-2,4-dione], the IC50 is 0.0044 µM against PCSK9 [1], over 40 µM in test [3], 0.127 µM against PCSK9 [4] and over 10 µM in test [5]. Further, the Kd at PCSK9 [2] stood at 0.003 µM.
In the same order, the values of `O=C(O)c1ccc(=O)n(-c2ccc(N[C@H]3CC[C@H](Nc4nc5cccnc5[nH]4)C3)nc2)c1` [Example 44, 6′-(((1S,3S)-3-((3H-Imidazo[4,5-b]pyridin-2-yl)amino)cyclopentyl)amino)-2-oxo-2H-[1,3′-bipyridine]-5-carboxylic acid] are 0.0041 µM, over 40 µM, 0.082 µM, 7.91 µM and 0.004 µM.
In the same order, the values of `N#Cc1cccn(-c2ccc(N[C@H]3CC[C@H](Nc4nc5cccnc5o4)C3)nc2)c1=O` [Example 15, 6′-(((1S,3S)-3-(Oxazolo[5,4-b]pyridin-2-ylamino)cyclopentyl)amino)-2-oxo-2H-[1,3′-bipyridine]-3-carbonitrile] are 0.0031 µM, over 40 µM, 0.076 µM, over 10 µM and 0.003 µM.
For the compound `COc1ccc(=O)n(-c2ccc(N[C@H]3CC[C@H](Nc4nc5cccnc5s4)C3)nc2)c1` [Example 25, 5-Methoxy-6′-(((1S,3S)-3-(thiazolo[5,4-b]pyridin-2-ylamino)cyclopentyl)amino)-2H-[1,3′-bipyridin]-2-one], the IC50 on PCSK9 [1] is 0.0056 µM; in test [3], over 40 µM; against PCSK9 [4] it was 0.051 µM; in test [5], 0.053 µM. For the same compound, the dissociation constant (Kd) on PCSK9 [2] turned out to be 0.004 µM.
Consider `O=c1ccccn1-c1ccc(N[C@H]2CC[C@H](Nc3nc4cccnc4s3)C2)nc1` [Example 19, 6′-(((1S,3S)-3-(Thiazolo[5,4-b]pyridin-2-ylamino)cyclopentyl)amino)-2H-[1,3′-bipyridin]-2-one], for which the IC50 at PCSK9 [1] was 0.0044 µM; in test [3], over 40 µM; at PCSK9 [4], 0.157 µM; in test [5], over 10 µM. The equilibrium dissociation constant (Kd) at PCSK9 [2] amounted to 0.004 µM.
Take `Cn1ccc(=O)n(-c2ccc(N[C@H]3CC[C@H](Nc4nc5cccnc5s4)C3)nc2)c1=O` [Example 82, 1-Methyl-3-(6-(((1S,3S)-3-(thiazolo[5,4-b]pyridin-2-ylamino)cyclopentyl)amino)pyridin-3-yl)pyrimidine-2,4(1H,3H)-dione]: the IC50 is 0.0023 µM at PCSK9 [1], over 40.1 µM in test [3], 0.124 µM against PCSK9 [4] and over 10 µM in test [5]. For the same compound, the Kd on PCSK9 [2] stood at 0.001 µM.
In the same order, the values of `O=c1ccccn1-c1ccc(N[C@H]2CC[C@H](Nc3nc4cccnc4[nH]3)C2)nc1` [Example 46, 6′-(((1S,3S)-3-((3H-Imidazo[4,5-b]pyridin-2-yl)amino)cyclopentyl)amino)-2H-[1,3′-bipyridin]-2-one] are 0.0044 µM, over 40 µM, 0.102 µM, 0.425 µM and 0.006 µM.
Regarding `O=c1ccccn1-c1ccc(N[C@H]2CC[C@H](Nc3nc4c(Br)ccnc4[nH]3)C2)nc1` [Example 73, 6′-(((1S,3S)-3-((7-Bromo-3H-imidazo[4,5-b]pyridin-2-yl)amino)cyclopentyl)amino)-2H-[1,3′-bipyridin]-2-one], the IC50 against PCSK9 [1] is 0.0047 µM; in test [3] it was over 40 µM; at PCSK9 [4], 0.28 µM; in test [5] it was 0.192 µM. In addition, the Kd on PCSK9 [2] amounted to 0.005 µM.
Turning to `Cc1cccn(-c2ccc(N[C@H]3CC[C@H](Nc4nc5cccnc5[nH]4)C3)nc2)c1=O` [Example 40, 6′-(((1S,3S)-3-((3H-Imidazo[4,5-b]pyridin-2-yl)amino)cyclopentyl)amino)-3-methyl-2H-[1,3′-bipyridin]-2-one], the IC50 was 0.0016 µM against PCSK9 [1], over 40 µM in test [3], 0.09 µM against PCSK9 [4] and 8.15 µM in test [5]. Besides, at PCSK9 [2], the Kd was determined as 0.001 µM.
In the same order, the values of `COc1cccn(-c2ccc(N[C@H]3CC[C@H](Nc4nc5cccnc5s4)C3)nc2)c1=O` [Example 21, 3-Methoxy-6′-(((1S,3S)-3-(thiazolo[5,4-b]pyridin-2-ylamino)cyclopentyl)amino)-2H-[1,3′-bipyridin]-2-one] are 0.0015 µM, over 40 µM, 0.1 µM, over 10 µM and 0.0005 µM.
